Test results: patent US20170304223A1, “METHOD OF TREATING PROSTATE CANCER USING A PKC INHIBITOR” (priority 2016, published 2017)

Key:
[1] = target: T1, PKC-τ (Homo sapiens, UniProt P41743); test: PKC-iota levels in prostate cells by Western blot after treatment; format: cell-based; settings: 72 hours after treatment
T1 construct: endogenous in cells; host or cells: DU-145
T1 sequence (P41743 1-596): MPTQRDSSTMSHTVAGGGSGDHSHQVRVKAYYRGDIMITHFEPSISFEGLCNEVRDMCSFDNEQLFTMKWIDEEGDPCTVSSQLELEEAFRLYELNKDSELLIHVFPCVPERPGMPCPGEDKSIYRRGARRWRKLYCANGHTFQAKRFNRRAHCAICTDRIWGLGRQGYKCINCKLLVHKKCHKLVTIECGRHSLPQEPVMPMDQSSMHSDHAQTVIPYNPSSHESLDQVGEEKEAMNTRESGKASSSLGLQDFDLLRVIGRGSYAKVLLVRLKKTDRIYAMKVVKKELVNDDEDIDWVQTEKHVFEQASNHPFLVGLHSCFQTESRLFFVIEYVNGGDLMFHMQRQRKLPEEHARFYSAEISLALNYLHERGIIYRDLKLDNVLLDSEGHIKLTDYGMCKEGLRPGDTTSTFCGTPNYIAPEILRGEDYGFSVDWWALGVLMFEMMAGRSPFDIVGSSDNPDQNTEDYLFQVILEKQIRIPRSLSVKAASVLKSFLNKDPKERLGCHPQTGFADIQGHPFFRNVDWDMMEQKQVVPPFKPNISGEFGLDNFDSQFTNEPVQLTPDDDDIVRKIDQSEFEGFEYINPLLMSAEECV
Experimental: Protein was harvested from cultured cells using Lysis Buffer purchased from Cell Signaling. Protein content was measured according to the Bradford method. Tissue extracts containing equal amounts of protein in each lane were run on SDS-PAGE gels. The tissue lysates (50 μg) were Western blotted for PKC-τ (10 μg, 1:2500 dilution): and PKC-ζ (5 μg, 1:4000 dilution) and β-actin (10 μg, 1:3000 dilution).
(§1) Western blots were developed on the Protein Simple Flour Chem M. Accompanied by the Alpha view software for analysis.
ICA-1 was used as a PKC-iota inhibitor. […] The cells were counted before and after the treatments and a statistical analysis was performed. Following cell counting, the cells were lysed and levels of PKC-iota and PKC-zeta were measured by Western blotting and immunoprecipitation.

[2] = test system: Cytochrome C; test: Apoptotic marker Cytochrome C by Western blot; format: cell-based, human
[3] = test system: DU-145 cells; test: Cell proliferation assay / cell counting, DU-145 cells; format: cell-based, human
Experimental: (§2) RWPE epithelial cells and DU-145 human prostate carcinoma cells were purchased from American Type Culture Collection (ATCC). PC-3 cells were acquired from Moffit Cancer center. The cells were grown as a monolayer in a T25 tissue culture flask with 5 mL of growth medium and maintained in a 37 C incubator with 5% CO2. The E-MEM and F-12 growth media were obtained from ATCC. The medium was supplemented with 10% fetal bovine serum (FBS) and a mix of the antibiotics Penicillin (10,000 IU) and Streptomycin (10,000 μg/ml) in a 100× concentration which was purchased from Corning.
(§3) RWPE, DU 145 and PC-3 cells were cultured in a T25 cell culture flasks. 20,000 cells were seeded into each. […] The treatment was repeated over the course of 72 hours and samples were taken at 24 hour intervals.
(§4) RWPE, DU 145, and PC-3 cells were cultured in a T25 cell culture flasks. At assigned intervals the cells were trypsonized and put into a 1.5 mL microcentrifuge tube. Cells were inverted gently to keep the solution homogeneous and then the Cell Scepter by Millipore was used to measure cell numbers.

[4] = test system: PC-3 cells; test: Cell proliferation assay / cell counting, PC-3 cells; format: cell-based, human
Experimental: as §2, §3, §4

[5] = test system: NF-kB; test: NF-kB translocation after TNF-α exposure (cell subfractionation); format: cell-based, human; settings: DU-145 and PC-3 cells (cell line not specified), 10 μM, vs untreated control
Experimental: 20,000 cells were seeded into each.
as §1

[6] = test system: RWPE cells; test: Cell proliferation assay / cell counting, RWPE cells; format: cell-based, human; settings: 10 μM, non-malignant cells (RWPE)
Experimental: as §2, §3, §4

[7] = test system: Survivin; test: Apoptotic marker Survivin by Western blot; format: cell-based, human
[8] = DU-145 cells, 72 hours of treatment
[9] = RWPE cells, 72 hours of treatment

Question: Which results are given for `NC(=O)c1ncn([C@H]2C[C@@H](COP(=O)(O)O)[C@H](O)[C@@H]2O)c1N` [ICA-1]?
Answer: average decrease in PKC-τ ([1]; DU-145 cells): 46%; decrease in PKC-τ ([1]; PC-3 cells): 40%; increase in Cytochrome C [2, 8]: ~3 fold; increase in Cytochrome C ([2]; PC-3 cells): 2 fold; increase of Cytochrome C [2, 9]: 8%; decrease in cell population (dose-response curve) ([3]; 10 μM, malignant cells (DU-145)): statistically significant decrease in population; reduction in cell growth compared to untreated cells ([3]; DU-145 cells): 19%; average decline of cell population [4]: 18%; decrease of nucleic NFkB [5]: 5 fold; decrease in cell population (dose-response curve) [6]: not having a significant decrease; reduction of Survivin (in words) [7, 8]: reduction of Survivin by half; decrease in Survivin ([7]; PC-3 cells): 40%; decrease in Survivin [7, 9]: 10%
